Several values for one entry are separate records, joined by “and”; a condition that tells them apart may be missing. Equal entries are not always repeated.
What was measured:
[1] = tested on: G544V-mutant LDL receptor; experiment: Cell-based trafficking assay: restoration of glycosylation/trafficking of mutant LDL receptor in CHO cells; set-up: species or system human; conditions: for EC50: CHO cells expressing G544V-mutant LDL receptor, 2 hours at 37° C., value ± standard error, read-out: EC50, acquisition of mutant LDL receptor glycosylation
Experimental: (§1) T-Rex-CHO-K1 cloned cell lines expressing wild-type and mutant LDL receptor were cultured as described in Sorensen et al. (2006) and Tveten et al. (2007), and according to the manufacturer's protocols (Thermo Fisher Scientific). The expression in CHO cells of G544V-mutant or wildtype LDL receptor protein was induced with 1 μg/mL tetracycline for 24 h prior to experiments with 4-PBA or 4-PBA analogs (Tveten et al. (2007)). To compare pharmacological potency of 4-PBA analogs, cells were incubated with the compounds for 2 hours at 37° C. in 12-well 22 mm plates (Corning Costar #3513). For experiments concerning the extracellular secretion of GRP94 (FIG. 5), the incubations with 4-PBA were extended to 24 hours. Cells were broken in lysis buffer (1% (v/v) Triton X-100, 150 mM NaCl, 10 mM EDTA, 50 mM Tris-HCl pH 7.5) and cleared by centrifugation (15,000 g for 15 minutes). Cellular protein concentration was measured using “Protein Assay Kit II” (Bio-Rad) with bovine serum albumin as standard. Lysates were added to Laemmli sample buffer (New England BioLabs) containing 130 mM dithiothreitol and heated for 15 min at 55° C. Cell medium (containing secreted proteins) was added to Laemmli sample buffer containing 5% β-mercaptoethanol and boiled for 5 min. Samples were run on 4-15% Tris/HCl Criterion gels (Bio-Rad) followed by immunoblotting.
Chemiluminescence signals from western blots for the glycosylated (160 kDa) form of G544V mutant LDL receptor were quantified as a percentage of total LDL receptor protein (glycosylated+unglycosylated bands). Data at high concentrations of 4-PBA analogs, which show inhibition of LDL receptor trafficking, were omitted. Data from individual experiments were normalized (to obtain maximal response=100%), so that data from replicate experiments (n=4-5) could be averaged. Logistic fitting to the dose-response data was carried out with program Ultrafit (Elsevier Biosoft). […] Data from fluorescence polarization titrations (FIGS. 6(E)-6(G)) were analyzed with Ultrafit, and IC50 values were determined from plots using nonlinear curve fitting. […] IC50 values were converted to true affinities, Ki, using the approach of (Nikolovska-Coleska et al., 2004), and these are used in the scatter plot, FIG. 6(H).
A system comprising a CHO (T-Rex-CHO-K1) cell clone expressing the G544V-mutant human LDL receptor under a tetracycline-inducible promoter was used (see General Methods) to measure the packaging of resident proteins and a misfolded mutant LDL receptor into COPII vesicles budded from permeabilized cells. The G544V-mutant human LDL receptor is a naturally occurring transport-defective (class 2) mutant LDL receptor with a point mutation in the luminal β-propeller domain that causes ER trapping with chaperone association. 4-PBA has been show to restore transportation of G544V-mutant human LDL receptor to the plasma membrane (Tveten et al. (2007)).
CHO cells expressing G544V-mutant LDL receptor were incubated with the indicated concentrations of 4-PBA analogs for 2 hours at 37° C. Cell lysates were analyzed by immunoblotting for the appearance of 160 kDa mature glycosylated LDL receptor (labeling indicates the position of 160 kDa mature glycosylated and 120 kDa precursor forms of LDL receptor). Gamma correction was applied to the immunoblot images.

human Sec24a = target: T1, human Sec24a (Homo sapiens, UniProt O95486); experiment: Fluorescence polarization assay: displacement of 5-Fam-[…] from Sec24a; type: binding; conditions: fluorescence polarization at 22° C.; value ± standard error; read-out: IC50, displacement of fluorescent probe 5-Fam-QIYTDIEANR from Sec24a
T1 construct: His6 (TEV-cleavable) (N, cleaved yes); made in house; host or cells: High Five insect cells (baculovirus)
T1 sequence (O95486 341-1093): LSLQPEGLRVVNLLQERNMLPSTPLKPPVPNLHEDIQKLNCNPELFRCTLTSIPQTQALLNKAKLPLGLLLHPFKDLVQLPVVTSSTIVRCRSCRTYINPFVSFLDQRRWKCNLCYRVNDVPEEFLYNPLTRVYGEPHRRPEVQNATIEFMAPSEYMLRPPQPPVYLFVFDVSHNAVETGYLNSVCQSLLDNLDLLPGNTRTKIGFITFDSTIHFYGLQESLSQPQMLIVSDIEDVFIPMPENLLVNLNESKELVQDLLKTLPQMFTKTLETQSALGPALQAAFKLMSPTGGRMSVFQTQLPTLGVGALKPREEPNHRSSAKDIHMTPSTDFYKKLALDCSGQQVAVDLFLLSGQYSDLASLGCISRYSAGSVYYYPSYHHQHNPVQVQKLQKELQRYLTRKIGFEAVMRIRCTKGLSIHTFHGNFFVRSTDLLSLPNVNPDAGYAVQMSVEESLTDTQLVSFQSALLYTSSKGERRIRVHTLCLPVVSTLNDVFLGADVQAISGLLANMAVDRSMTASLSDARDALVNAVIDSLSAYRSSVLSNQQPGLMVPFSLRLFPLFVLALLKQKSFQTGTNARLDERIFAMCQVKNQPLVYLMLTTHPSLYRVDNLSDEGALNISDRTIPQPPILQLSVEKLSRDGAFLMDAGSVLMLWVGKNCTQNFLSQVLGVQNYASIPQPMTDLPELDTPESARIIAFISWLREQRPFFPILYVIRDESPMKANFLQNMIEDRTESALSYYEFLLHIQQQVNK

[2] = target: T2, COPII coat proteins (Sec23a/24d) (Homo sapiens, UniProt O94855); experiment: In vitro COPII budding assay with permeabilized CHO cells; type: biochemical, H. sapiens; conditions: 10 mM 4-PBA
T2 construct: Sec23a/Sec24d (full-length protein) for COPII budding assays; made in house; host or cells: High Five insect cells (Sec23a/24d, Sec13a/31a); E. coli BL21(DE3) (Sar1a); added to digitonin-permeabilized T-Rex-CHO-K1 cells
T2 sequence (O94855 whole entry): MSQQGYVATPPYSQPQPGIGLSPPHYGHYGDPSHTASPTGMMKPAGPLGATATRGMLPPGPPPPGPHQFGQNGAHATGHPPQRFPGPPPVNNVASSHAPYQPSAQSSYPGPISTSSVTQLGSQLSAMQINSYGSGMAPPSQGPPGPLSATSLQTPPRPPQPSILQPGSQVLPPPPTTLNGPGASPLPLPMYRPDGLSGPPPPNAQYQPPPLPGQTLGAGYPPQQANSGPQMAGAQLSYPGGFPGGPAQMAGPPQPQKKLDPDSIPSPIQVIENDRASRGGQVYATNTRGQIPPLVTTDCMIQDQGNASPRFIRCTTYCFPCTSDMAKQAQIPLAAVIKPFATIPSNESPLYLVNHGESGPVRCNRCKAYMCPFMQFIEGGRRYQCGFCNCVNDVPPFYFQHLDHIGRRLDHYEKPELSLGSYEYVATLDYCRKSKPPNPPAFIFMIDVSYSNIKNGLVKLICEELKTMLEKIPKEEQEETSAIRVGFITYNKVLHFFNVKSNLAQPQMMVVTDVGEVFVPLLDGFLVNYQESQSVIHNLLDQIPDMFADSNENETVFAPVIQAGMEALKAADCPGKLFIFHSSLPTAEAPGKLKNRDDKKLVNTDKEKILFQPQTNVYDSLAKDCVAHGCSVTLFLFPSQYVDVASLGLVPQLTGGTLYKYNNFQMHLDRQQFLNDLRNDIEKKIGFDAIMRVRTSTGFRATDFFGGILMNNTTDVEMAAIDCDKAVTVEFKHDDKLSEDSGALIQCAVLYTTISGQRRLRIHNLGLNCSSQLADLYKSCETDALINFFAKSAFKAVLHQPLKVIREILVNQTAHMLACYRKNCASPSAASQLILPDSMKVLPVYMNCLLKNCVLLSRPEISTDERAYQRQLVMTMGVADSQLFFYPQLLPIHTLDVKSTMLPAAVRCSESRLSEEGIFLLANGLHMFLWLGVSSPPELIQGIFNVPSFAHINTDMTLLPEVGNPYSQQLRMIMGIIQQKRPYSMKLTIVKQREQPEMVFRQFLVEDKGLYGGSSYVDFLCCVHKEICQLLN
T2 sequence (Q15436 whole entry partner): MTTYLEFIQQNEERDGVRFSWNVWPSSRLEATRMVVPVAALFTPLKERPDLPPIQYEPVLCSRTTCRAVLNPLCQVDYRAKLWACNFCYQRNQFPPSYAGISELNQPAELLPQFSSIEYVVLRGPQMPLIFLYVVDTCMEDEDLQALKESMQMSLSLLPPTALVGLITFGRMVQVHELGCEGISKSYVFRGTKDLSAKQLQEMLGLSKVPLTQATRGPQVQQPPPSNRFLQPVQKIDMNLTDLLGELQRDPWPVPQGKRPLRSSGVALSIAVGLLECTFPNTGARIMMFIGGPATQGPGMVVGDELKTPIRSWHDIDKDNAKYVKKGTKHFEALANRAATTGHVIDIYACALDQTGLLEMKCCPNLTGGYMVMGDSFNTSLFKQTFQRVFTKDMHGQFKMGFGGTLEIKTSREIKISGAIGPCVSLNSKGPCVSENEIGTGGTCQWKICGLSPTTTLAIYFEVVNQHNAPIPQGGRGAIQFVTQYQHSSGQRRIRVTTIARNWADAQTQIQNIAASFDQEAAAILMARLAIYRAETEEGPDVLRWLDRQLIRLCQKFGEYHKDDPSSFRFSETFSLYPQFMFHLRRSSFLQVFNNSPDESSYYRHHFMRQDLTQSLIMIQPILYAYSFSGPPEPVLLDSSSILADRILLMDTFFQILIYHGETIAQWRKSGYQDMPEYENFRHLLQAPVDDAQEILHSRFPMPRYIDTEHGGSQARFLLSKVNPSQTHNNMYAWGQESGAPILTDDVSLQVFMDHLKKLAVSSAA
Experimental: In vitro COPII budding reactions used permeabilized cells prepared from the T-Rex-CHO-K1 parent line and from the clone that expresses mutant LDL receptor. Permeabilization was carried out as described in Mancias and Goldberg (2008) with modifications. Two culture dishes (150 mm) of cells were prepared with cells at no greater than 60% confluence. Cells were washed with 20 ml PBS at 37° C. and then trypsinized with 2 ml of Trypsin-EDTA (0.05%, Gibco) for 1 min at 37° C.; 100 μl of Soybean Trypsin Inhibitor (2 mg/ml; Sigma) was added to each culture plate. Next, 5.5 ml ice-cold KHM buffer (110 mM KOAc, 20 mM Hepes pH 7.2, 2 mM magnesium acetate) was added per plate, and cells were transferred to a 15 ml Falcon tube and pelleted gently (250 g for 3 min at 4° C.). The supernatant was aspirated and the cells re-suspended in 6 ml ice-cold KHM buffer. To permeabilize the cells, 6 μl digitonin stock solution (40 mg/ml in dimethyl sulfoxide) was added, cells were mixed by inversion and incubated on ice for 5 minutes. To terminate permeabilization, cells were diluted to 14 ml with KHM buffer and immediately pelleted at 250 g for 3 min at 4° C. […] The protein concentration was measured using protein assay kit (Bio-Rad) with BSA as standard; routinely, the measurement is in the range 4-5 mg/ml. […]

GRP94 = type: cell-based
Experimental: as §1
[…] The presence of KDEL tagged (SEQ ID NO: 3) luminal chaperone GRP94 inside and outside cells was measured.

Sec23a/Sec24a⋅Sec22b = target: T3, Sec23a/Sec24a⋅Sec22b (Homo sapiens, UniProt O95486); experiment: Crystal soaking and X-ray difference Fourier maps; type: binding; conditions: crystals soaked at 1, 15 and 50 mM 4-PBA
T3 construct: His6 (TEV-cleavable) (N, cleaved yes); made in house; host or cells: High Five insect cells (Sec23a/Sec24a); E. coli (Sec22b)
T3 sequence (Q15436 whole entry partner, one chain of several): as the sequence (Q15436 whole entry partner) above
T3 sequence (O75396 1-195 partner limits assumed, one chain of several): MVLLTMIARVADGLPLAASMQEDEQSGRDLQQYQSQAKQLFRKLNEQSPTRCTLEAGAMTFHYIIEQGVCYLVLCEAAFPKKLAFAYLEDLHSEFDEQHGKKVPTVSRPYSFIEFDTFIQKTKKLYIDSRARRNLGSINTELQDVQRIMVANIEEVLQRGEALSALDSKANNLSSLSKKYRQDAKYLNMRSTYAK
Experimental: The Sec23a/Sec24a⋅Sec22b complex was crystallized as described in Mancias and Goldberg (2007) from a solution comprising 10% (w/v) PEG 4000, 500 mM Na acetate and 50 mM Tris-HCl pH 7.9. Crystals were transferred into a soaking buffer of 10% (w/v) PEG 4000, 600 mM NaCl, 50 mM Tris-HCl buffer, pH 7.9. Either 4-PBA (0-50 mM) or 5 mM ΦC signal peptide was added to the crystal containing solution, and the ligand soaking proceeded for five hours at 22° C. Crystals were then transferred to an equivalent ligand-containing buffer with additional 24% ethylene glycol cryo-protectant, and were flash frozen in liquid nitrogen. Crystals treated in this manner diffracted synchrotron X-rays to 2.5-2.8 Å resolution.
X-ray diffraction data were collected at 0.979 Å wavelength on beamline ID-24C or ID-24E of the Advanced Photon Source, Argonne National Laboratory. Data were processed with the program HKL2000 (Otwinowski and Minor (1997); see Tables 1 and 2). Structure refinement was carried out using Phenix (Adams et al. (2010)), initially by rigid-body improvement, followed by positional refinement, based on the published coordinates of Sec23a/Sec24a⋅Sec22b (PDB 2NUT; Mancias and Goldberg (2007)). Models for […] signal peptides or 4-PBA were not included in refinements prior to the creation of FIG. 1, to eliminate potential phase bias. […]

SMILES | EC50 [1] | IC50 (human Sec24a) [mM] | further results
O=C(O)CCc1ccccc1 [3-PPA, 3-phenylpropionate] | 7.48 ± 0.68 mM | 4.11 ± 0.34 | –
O=C(O)CCCc1ccccc1 [4-PBA, 4-phenylbutyrate] | 6.37 mM and 6.4 mM | 3.66 ± 0.22 | restored trafficking of mutant LDL receptor (share of the receptor) ([1]; 10 mM 4-PBA applied to cells): ≤ 25%; packaging of ER residents and mutant LDL receptor into COPII vesicles [2]: significant enrichment; reduction in the packaging rate of p24 proteins and ERGIC-53 [2]: 50%; secretion of GRP94 from CHO cells (GRP94; 0-40 mM 4-PBA, 24 hours): dose-dependent; cell lysis (GRP94; 45 mM 4-PBA, highest concentration): cell lysis was detected; 4-PBA concentration of maximal GRP94 secretion (GRP94; 24 hours at 37° C., ER stressed and ER unstressed CHO cells): 20 mM; 4-PBA concentration at which unfolded protein response (UPR) was attenuated (GRP94; CHO cells expressing G544V-mutant LDL receptor, 24 hours at 37° C.): 10 to 20 mM; binding to the B site of Sec24a (Sec23a/Sec24a⋅Sec22b): clear evidence for binding
O=C(O)CCCCc1ccccc1 [5-PVA, 5-phenylvalerate] | 3.36 ± 0.42 mM | 0.99 ± 0.08 | –
O=C(O)CCCc1ccc(O)cc1 [Hydroxy-PBA, 4-(4-hydroxyphenyl)butyrate] | 10.6 ± 0.4 mM | 5.04 ± 0.69 | –
O=C(O)CCc1ccc(O)cc1 [Hydroxy-PPA, 3-(4-hydroxyphenyl)propionate] | 21.7 ± 1.03 mM | 9.22 ± 0.94 | –
COc1ccc(CCCC(=O)O)cc1 [Methoxy-PBA, 4-(4-methoxyphenyl)butyrate] | 8.63 ± 0.98 mM | 4.14 ± 0.7 | –
Cc1ccc(CCCC(=O)O)cc1 [Tolyl-BA, 4-(4-tolyl)butyrate] | 4.89 ± 0.24 mM | 1.7 ± 0.16 | –

Source: patent publication US11433040B2, “Methods for modifying endoplasmic reticulum processing of protein” (priority 2017, dated 2022)
